Reference: PubChem BioAssay (NCI)
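The concentration for 50% growth inhibition is given as GI50. TGI is the concentration that stops growth completely.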

What was measured:
Test in all cases: DTP human tumour cell line panel, 384-well format
MCF7 breast = tested on: MCF7 breast
EKVX NSCLC = tested on: EKVX NSCLC
OVCAR-3 ovarian = tested on: OVCAR-3 ovarian
RXF 393 renal = tested on: RXF 393 renal
HL-60(TB) leukemia = tested on: HL-60(TB) leukemia
SK-OV-3 ovarian = tested on: SK-OV-3 ovarian
IGROV1 ovarian = tested on: IGROV1 ovarian
HCC-2998 colon = tested on: HCC-2998 colon
HT29 colon = tested on: HT29 colon
NCI-H226 lung = tested on: NCI-H226 lung
UO-31 renal = tested on: UO-31 renal
CAKI-1 renal = tested on: CAKI-1 renal
CCRF-CEM leukemia = tested on: CCRF-CEM leukemia
UACC-257 melanoma = tested on: UACC-257 melanoma
A498 renal = tested on: A498 renal
COLO 205 colon = tested on: COLO 205 colon
SR leukemia = tested on: SR leukemia
HOP-92 NSCLC = tested on: HOP-92 NSCLC
SW-620 colon = tested on: SW-620 colon
SK-MEL-5 melanoma = tested on: SK-MEL-5 melanoma
SK-MEL-28 melanoma = tested on: SK-MEL-28 melanoma
NCI/ADR-RES ovarian = tested on: NCI/ADR-RES ovarian
KM12 colon = tested on: KM12 colon
OVCAR-8 ovarian = tested on: OVCAR-8 ovarian
HCT-116 colon = tested on: HCT-116 colon
MDA-MB-468 breast = tested on: MDA-MB-468 breast
MDA-MB-435 melanoma = tested on: MDA-MB-435 melanoma
NCI-H522 lung = tested on: NCI-H522 lung
MDA-MB-231 breast = tested on: MDA-MB-231 breast
SNB-19 CNS = tested on: SNB-19 CNS
SN12C renal = tested on: SN12C renal
786-0 renal = tested on: 786-0 renal
RPMI-8226 leukemia = tested on: RPMI-8226 leukemia
OVCAR-5 ovarian = tested on: OVCAR-5 ovarian
HS 578T breast = tested on: HS 578T breast
SK-MEL-2 melanoma = tested on: SK-MEL-2 melanoma
NCI-H460 NSCLC = tested on: NCI-H460 NSCLC
NCI-H23 lung = tested on: NCI-H23 lung
DU-145 prostate = tested on: DU-145 prostate
A549 NSCLC = tested on: A549 NSCLC
TK-10 renal = tested on: TK-10 renal
MOLT-4 leukemia = tested on: MOLT-4 leukemia
OVCAR-4 ovarian = tested on: OVCAR-4 ovarian
PC-3 prostate = tested on: PC-3 prostate
K-562 leukemia = tested on: K-562 leukemia
ACHN renal = tested on: ACHN renal
NCI-H322M lung = tested on: NCI-H322M lung
U251 glioblastoma = tested on: U251 glioblastoma
T-47D breast = tested on: T-47D breast
BT-549 breast = tested on: BT-549 breast
SF-268 CNS = tested on: SF-268 CNS

CC[C@@H]1C(=O)N(C)c2cnc(Nc3ccc(C(=O)NC4CCN(C)CC4)cc3OC)nc2N1C1CCCC1
GI50 (MCF7 breast): < 10 nM
TGI (MCF7 breast): 904 nM
GI50 (EKVX NSCLC): < 10 nM
TGI (EKVX NSCLC): 62.1 nM
GI50 (OVCAR-3 ovarian): < 10 nM
TGI (OVCAR-3 ovarian): < 10 nM
GI50 (RXF 393 renal): < 10 nM
TGI (RXF 393 renal): < 10 nM
GI50 (HL-60(TB) leukemia): < 10 nM
TGI (HL-60(TB) leukemia): < 10 nM
GI50 (SK-OV-3 ovarian): < 10 nM
TGI (SK-OV-3 ovarian): 107 nM
GI50 (IGROV1 ovarian): < 10 nM
TGI (IGROV1 ovarian): 224 nM
GI50 (HCC-2998 colon): < 10 nM
TGI (HCC-2998 colon): < 10 nM
GI50 (HT29 colon): < 10 nM
TGI (HT29 colon): 1090 nM
GI50 (NCI-H226 lung): 224 nM
TGI (NCI-H226 lung): 1920 nM
GI50 (UO-31 renal): 77.1 nM
TGI (UO-31 renal): 1480 nM
GI50 (CAKI-1 renal): < 10 nM
TGI (CAKI-1 renal): 1270 nM
GI50 (CCRF-CEM leukemia): < 10 nM
TGI (CCRF-CEM leukemia): < 10 nM
GI50 (UACC-257 melanoma): < 10 nM
TGI (UACC-257 melanoma): 1700 nM
GI50 (A498 renal): < 10 nM
TGI (A498 renal): 814 nM
GI50 (COLO 205 colon): < 10 nM
TGI (COLO 205 colon): < 10 nM
GI50 (SR leukemia): < 10 nM
TGI (SR leukemia): < 10 nM
GI50 (HOP-92 NSCLC): < 10 nM
TGI (HOP-92 NSCLC): 1050 nM
GI50 (SW-620 colon): < 10 nM
TGI (SW-620 colon): < 10 nM
GI50 (SK-MEL-5 melanoma): < 10 nM
TGI (SK-MEL-5 melanoma): < 10 nM
GI50 (SK-MEL-28 melanoma): < 10 nM
TGI (SK-MEL-28 melanoma): 1920 nM
GI50 (NCI/ADR-RES ovarian): 196 nM
TGI (NCI/ADR-RES ovarian): 591 nM
GI50 (KM12 colon): < 10 nM
TGI (KM12 colon): < 10 nM
GI50 (OVCAR-8 ovarian): < 10 nM
TGI (OVCAR-8 ovarian): < 10 nM
GI50 (HCT-116 colon): < 10 nM
TGI (HCT-116 colon): 135 nM
GI50 (MDA-MB-468 breast): < 10 nM
TGI (MDA-MB-468 breast): < 10 nM
GI50 (MDA-MB-435 melanoma): < 10 nM
TGI (MDA-MB-435 melanoma): < 10 nM
GI50 (NCI-H522 lung): < 10 nM
TGI (NCI-H522 lung): < 10 nM
GI50 (MDA-MB-231 breast): < 10 nM
TGI (MDA-MB-231 breast): 1350 nM
GI50 (SNB-19 CNS): < 10 nM
TGI (SNB-19 CNS): 269 nM
GI50 (SN12C renal): < 10 nM
TGI (SN12C renal): 880 nM
GI50 ([…]-0 renal): < 10 nM
TGI (786-0 renal): 149 nM
GI50 (RPMI-8226 leukemia): < 10 nM
TGI (RPMI-8226 leukemia): < 10 nM
GI50 (OVCAR-5 ovarian): < 10 nM
TGI (OVCAR-5 ovarian): 226 nM
GI50 (HS 578T breast): < 10 nM
TGI (HS 578T breast): < 10 nM
GI50 (SK-MEL-2 melanoma): < 10 nM
TGI (SK-MEL-2 melanoma): < 10 nM
GI50 (NCI-H460 NSCLC): < 10 nM
TGI (NCI-H460 NSCLC): < 10 nM
GI50 (NCI-H23 lung): < 10 nM
TGI (NCI-H23 lung): < 10 nM
GI50 (DU-145 prostate): < 10 nM
TGI (DU-145 prostate): < 10 nM
GI50 (A549 NSCLC): < 10 nM
TGI (A549 NSCLC): 121 nM
GI50 (TK-10 renal): < 10 nM
TGI (TK-10 renal): 235 nM
GI50 (MOLT-4 leukemia): < 10 nM
TGI (MOLT-4 leukemia): < 10 nM
GI50 (OVCAR-4 ovarian): 10.3 nM
TGI (OVCAR-4 ovarian): 129 nM
GI50 (PC-3 prostate): < 10 nM
TGI (PC-3 prostate): 2460 nM
GI50 (K-562 leukemia): < 10 nM
TGI (K-562 leukemia): < 10 nM
GI50 (ACHN renal): 66.1 nM
TGI (ACHN renal): 1560 nM
GI50 (NCI-H322M lung): < 10 nM
TGI (NCI-H322M lung): 1400 nM
GI50 (U251 glioblastoma): < 10 nM
TGI (U251 glioblastoma): 85.6 nM
GI50 (T-47D breast): < 10 nM
TGI (T-47D breast): 166 nM
GI50 (BT-549 breast): < 10 nM
TGI (BT-549 breast): < 10 nM
GI50 (SF-268 CNS): < 10 nM
TGI (SF-268 CNS): 414 nM
